Test results reported in patent US10098350B2, “Fungicidal amides” (E. I. DU PONT DE NEMOURS AND COMPANY, priority 2013, dated 2018).

Columns and labels:
Assay type in all cases: in vivo
[1] = test system: Puccinia recondite f. sp. tritici; test: Test D: wheat seedlings sprayed with test suspension, inoculated with Puccinia recondite f. sp. tritici (wheat leaf rust), visual disease rating
How it was run: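 Wheat seedlings were sprayed to run-off with compound suspended in 50/50 acetone–water containing 250 ppm Trem 014, at 10-200 ppm (40-800 g ai/ha). They were inoculated with rust spores the next day, then kept 24 h saturated at 20 °C and 6 days at 20 °C. Scores are visual % disease control versus untreated controls.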

[2] = test system: Erysiphe graminis f. sp. tritici; test: Test E: wheat seedlings sprayed with test suspension, inoculated with Erysiphe graminis f. sp. tritici (wheat powdery mildew), visual disease rating
How it was run: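 Wheat seedlings sprayed to run-off with compound suspension (acetone 3%, acetone/water 50/50 with 250 ppm Trem 014) at 10, 40, 50 or 200 ppm (40–800 g ai/ha), inoculated next day with spore dust. Incubated 7 or 8 days at 20° C, then rated visually as % disease control relative to controls (0–100).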

[3] = test system: Botrytis cinerea; test: Test A: tomato seedlings sprayed with test suspension, inoculated with Botrytis cinerea (gray mold), visual disease rating; settings: Cmpd. No. unmarked; 100 = 100% disease control, 0 = no control relative to controls
Source text: (§1) General protocol for preparing test suspensions for Tests A-E: the test compounds were first dissolved in acetone in an amount equal to 3% of the final volume and then suspended at the desired concentration (in ppm) in acetone and purified water (50/50 mix by volume) containing 250 ppm of the surfactant Trem® 014 (polyhydric alcohol esters). The resulting test suspensions were then used in Tests A-E. Samples were applied to plants at either a 10 ppm (**), 40 ppm, 50 ppm (*) or 200 ppm (#) test solution to the point of run-off on the test plants with the equivalent of a rate of 40 g ai/ha, 160 g ai/ha, 200 g ai/ha, or 800 g ai/ha, respectively.
The test suspension was sprayed to the point of run-off on tomato seedlings. The following day the seedlings were inoculated with a spore suspension of Botrytis cinerea (the causal agent of gray mold on many crops) and incubated in a saturated atmosphere at 20° C. for 48 h, and moved to a growth chamber at 27° C. for 2 days, after which time visual disease ratings were made.
(§2) Results for Tests A-E are given in Table A. In the Table, a rating of 100 indicates 100% disease control and a rating of 0 indicates no disease control (relative to the controls). A dash (-) indicates no test results.

[4] = test system: Stagonospora nodorum (also known as Septoria nodorum); test: Test B: wheat seedlings sprayed with test suspension, inoculated with Stagonospora nodorum (wheat glume blotch), visual disease rating
Source text: as §1
The test suspension was sprayed to the point of run-off on wheat seedlings. The following day the seedlings were inoculated with a spore suspension of Stagonospora nodorum (also known as Septoria nodorum; the causal agent of wheat glume blotch) and incubated in a saturated atmosphere at 20° C. for 48 h, and then moved to a growth chamber at 20° C. for 6 days, after which time visual disease ratings were made.
as §2

[5] = test system: Septoria tritici; test: Test C: wheat seedlings sprayed with test suspension, inoculated with Septoria tritici (wheat leaf blotch), visual disease rating
How it was run: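 Wheat seedlings sprayed to run-off with compound suspended in acetone/water with 250 ppm Trem 014, at 10, 40, 50 or 200 ppm (40–800 g ai/ha). Inoculated with Septoria tritici spores the next day, held 48 h saturated at 24 °C, then 21 days at 20 °C. Visual rating 0–100% disease control relative to controls.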

[6] = Cmpd. No. unmarked, 100 = 100% disease control, 0 = no control relative to controls
[7] = Cmpd. No. marked '**' (other test rate; meaning of mark not shown)

SMILES | Test D rating (% disease control) [1, 6] | Test E rating (% disease control) [2, 6] | Test A rating (% disease control) [3] | Test B rating (% disease control) [4, 6] | Test C rating (% disease control) [5, 6] | Test D rating (% disease control) [1, 7] | Test E rating (% disease control) [2, 7] | Test B rating (% disease control) [4, 7] | Test C rating (% disease control) [5, 7]
Cn1cc(C(=O)N(Cc2cc(-n3ccc(C(F)(F)F)n3)ccc2[N+](=O)[O-])C2CC2)c(C(F)F)n1 [compound 13] | 32% | 0% | 0% | 0% | 0% |  |  |  | 
Cn1cc(C(=O)N(Cc2cc(-n3ccc(C(F)(F)F)n3)ccc2C2CC2)C2CC2)c(C(F)F)n1 [compound 33] | 68% | 94% | 0% | 98% |  |  |  |  | 
Cn1cc(C(=O)N(Cc2c(Cl)cc(-n3ccc(C(F)(F)F)n3)cc2Cl)C2CC2)c(C(F)F)n1 [compound 36] | 99% | 90% | 0% | 99% |  |  |  |  | 
Cn1cc(C(=O)N(Cc2c(Cl)cc(-n3cccn3)cc2Cl)C2CC2)c(C(F)F)n1 [compound 24] | 99% | 90% | 0% | 100% |  |  |  |  | 
Cn1cc(C(=O)N(Cc2cccc(-n3ccc(C(F)(F)F)n3)c2Cl)C2CC2)c(C(F)F)n1 [compound 38] | 41% | 69% | 14% | 0% |  |  |  |  | 
Cn1nc(C(F)F)c(C(=O)N(Cc2ccc(-n3ccc(C(F)(F)F)n3)cc2C(F)(F)F)C2CC2)c1F [compound 37] | 97% | 99% | 0% | 100% |  |  |  |  | 
Cc1ccc(C(C)N(C(=O)c2cn(C)nc2C(F)F)C2CC2)cc1-n1ccc(C(F)(F)F)n1 (centres unmarked) [compound 26] | 0% | 81% | 0% | 99% |  |  |  |  | 
Cn1cc(C(=O)N(Cc2cc(-n3ccc(C(F)(F)F)n3)ccc2Br)C2CC2)c(C(F)F)n1 [compound 32] | 0% | 97% | 0% | 0% |  |  |  |  | 
CC(c1ccc(C(F)(F)F)c(-n2ccc(C(F)(F)F)n2)c1)N(C(=O)c1cn(C)nc1C(F)F)C1CC1 (centres unmarked) [compound 21] | 0% | 64% | 0% | 0% |  |  |  |  | 
COc1cc(-n2ccc(C(F)(F)F)n2)ccc1CN(C(=O)c1c(C(F)F)nn(C)c1F)C1CC1 [compound 25] | 100% | 98% | 0% | 100% |  |  |  |  | 
Cn1nc(C(F)F)c(C(=O)N(Cc2ccc(-n3ccc(C(F)(F)F)n3)cc2OC(F)(F)F)C2CC2)c1F [compound 23] | 99% | 98% | 0% | 98% |  |  |  |  | 
CC(c1cc(Cl)cc(-n2ccc(C(F)(F)F)n2)c1)N(C(=O)c1cn(C)nc1C(F)F)C1CC1 (centres unmarked) [compound 22] | 55% | 81% | 0% | 90% |  |  |  |  | 
CC(c1cc(-n2ccc(C(F)(F)F)n2)ccc1Br)N(C(=O)c1cn(C)nc1C(F)F)C1CC1 (centres unmarked) [compound 128] | 0% | 93% |  | 100% | 92% |  |  |  | 
Cn1cc(C(=O)N(Cc2ccnc(-n3ccc(C(F)(F)F)n3)c2Cl)C2CC2)c(C(F)F)n1 [compound 100] |  |  |  |  |  | 0% | 0% | 0% | 6%
Cn1nc(C(F)F)c(C(=O)N(Cc2ccc(-n3nccn3)cc2Cl)C2CC2)c1F [compound 64] | 100% | 97% |  | 100% | 98% |  |  |  | 
Cn1cc(C(=O)N(Cc2ccc(-n3cncn3)cc2Cl)C2CC2)c(C(F)F)n1 [compound 50] | 0% | 0% |  | 0% | 28% |  |  |  | 
Cn1nc(C(F)F)c(C(=O)N(Cc2c(Cl)cc(-n3ccc(Br)n3)cc2Cl)C2CC2)c1F [compound 132] | 100% | 91% |  | 100% | 99% |  |  |  | 
Cc1cc(-n2ccc(C(F)(F)F)n2)ccc1CN(C(=O)c1c(C(F)F)nn(C)c1F)C1CC1 [compound 105] | 99% | 98% |  | 100% | 98% |  |  |  | 
CC(c1cc(-n2ccc(C(F)(F)F)n2)ccc1Br)N(C(=O)c1c(C(F)F)nn(C)c1F)C1CC1 (centres unmarked) [compound 53] | 74% | 96% |  | 100% | 97% |  |  |  | 
Cn1nc(C(F)F)c(C(=O)N(Cc2ccc(-n3cnc(C(F)(F)F)n3)cc2Cl)C2CC2)c1F [compound 67] | 0% | 0% |  | 0% | 99% |  |  |  | 
CC(c1cc(-n2ccc(C(F)(F)F)n2)ccc1Cl)N(C(=O)c1cn(C)nc1C(F)F)C1CC1 (centres unmarked) [compound 119] | 93% | 92% |  | 99% | 92% |  |  |  | 
COc1ccc(C(C)N(C(=O)c2c(C(F)F)nn(C)c2F)C2CC2)cc1-n1ccc(C(F)(F)F)n1 (centres unmarked) [compound 55] | 61% | 87% |  | 100% | 97% |  |  |  | 
